According to patent publication US9387220B2, “Method for inducing hepatocyte proliferation and uses thereof” (CAN-FITE BIOPHARMA LTD., priority 2007, dated 2016):
Read-outs that look alike come from different tables or passages of the source.

Assays:
[1] = mice; cited from earlier work
A2B adenosine receptor = target: T1, A2B adenosine receptor (Homo sapiens, UniProt P29275); assay: Binding affinity to adenosine A2B receptor
T1 sequence (P29275 1-332): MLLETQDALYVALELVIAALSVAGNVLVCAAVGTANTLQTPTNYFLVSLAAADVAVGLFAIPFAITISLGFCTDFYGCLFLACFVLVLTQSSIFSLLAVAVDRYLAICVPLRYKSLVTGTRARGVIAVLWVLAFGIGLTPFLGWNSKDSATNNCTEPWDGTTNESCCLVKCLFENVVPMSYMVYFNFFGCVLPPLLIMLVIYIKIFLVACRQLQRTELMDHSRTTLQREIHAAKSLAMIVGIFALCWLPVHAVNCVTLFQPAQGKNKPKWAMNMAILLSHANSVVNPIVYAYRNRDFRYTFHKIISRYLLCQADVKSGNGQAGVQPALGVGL

[2] = oral administration; cited from earlier work
liver [3] = assay: Liver regeneration (liver weight) after partial hepatectomy; type: in vivo, rat; conditions: rats, 24 and 48 hours after partial hepatectomy; FIG. 6
Protocol: Male Wistar rats (275-300 g) were fasted 12 h before the procedure. The rats were anaesthetized with Ketamin (45 mg/kg) and Xylazine (5 mg/kg). Laparatomy was performed via a sub costal, bilateral incision. The main portal pedicle to the total liver was clamped for a period of 10 minutes, during which, a 70% hepatectomy was performed. After 10 minutes of ischemia (in the course of the hepatectomy), blood flow was restored by de-clamping.
Rats underwent laparatomy and the main portal pedicle to the total liver was clamped for a period of 10 minutes, during which a 70% hepatectomy was performed. After 10 minutes of ischemia blood flow was restored by de-clamping.
Livers were collected 24 and 48 hours after the partial […]. The growth of residual liver lobes was assessed using the following equation: […]
A is the estimated total liver weight before hepatectomy (3.4% of a rat's total weight),
B is the weight of liver resected during the hepatectomy, and
C is the weight of the regenerated liver at the end of the study.

liver [4] = assay: Serum levels of liver enzymes ALT and AST after partial hepatectomy with ischemia/reperfusion; type: in vivo, rat
[5] = Human studies with orally-administered Cl-IB-MECA, plasma half life; type: in vivo; conditions: oral administration, read-out: half life in human plasma from peak concentration
Text: An effective amount of an active agent may also be determined based on human PK studies. […] On the basis of said human trials twice daily administration appears to be a preferred administration regiment. […] On the basis of this human data, the administration regiment in human subjects may preferably be once or twice daily although other regiments cannot be excluded.

hepatocytes [6] = assay: Hepatocyte proliferation of regenerated liver after partial hepatectomy; type: in vivo, rat; conditions: rats, 70% hepatectomy, 100 μg/kg orally TID; control group 30%; FIG. 1
hepatocytes [7] = assay: PCNA staining of hepatocytes after partial hepatectomy; type: in vivo, rat; conditions: rats, 48 hours after partial hepatectomy; FIG. 5B

SMILES	half life [1]	IC50 (A2B adenosine receptor; read-out: IC50)	Ki (A2B adenosine receptor; read-out: Ki)	half life in human plasma from peak concentration [2]	IC50 (A2B adenosine receptor)	Ki (A2B adenosine receptor)	liver weight (% of regeneration) vs vehicle (liver [3])	ALT serum level vs control group (liver [4]; rats, 2, 4 and 48 hours after partial hepatectomy, 100 μg/kg orally TID, FIG. 2A)	AST serum level vs control group (liver [4]; rats, 2, 4 and 48 hours after partial hepatectomy, 100 μg/kg orally TID, FIG. 2B)	serum levels of liver enzymes (AST and ALT) vs vehicle and untreated rats (liver [4]; rats, partial hepatectomy, further assay, FIG. 3)	half-life [5]	level of regeneration (hepatocyte proliferation) (hepatocytes [6])	number of PCNA positive hepatocytes vs vehicle (hepatocytes [7])
CNC(=O)[C@H]1O[C@@H](n2cnc3c(NCc4cccc(I)c4)ncnc32)[C@H](O)[C@@H]1O [IB-MECA, 1-deoxy-1-{6-[({3-iodophenyl}methyl)amino]-9H-purine-9-yl}-N-methyl-β-D-ribofuranuronamide]	1.5 h	47.6 µM	42.3 µM	8 to 10 h									
CNC(=O)[C@H]1O[C@@H](n2cnc3c(NCc4cccc(I)c4)nc(Cl)nc32)[C@H](O)[C@@H]1O [Cl-IB-MECA, 2-chloro-N^6-(3-iodobenzyl)-adenosine-5′-N-methyl-uronamide]					No activity	No activity	increase	significantly decreased	significantly decreased	reduction	12 to 14 h	45.1%	significantly increased
